According to patent US20220040253A1, “Agonists of Human Kisspeptin Receptor for Modulating Sexual Desire” (Université de Liège, priority 2019, published 2022):
Entries after “also recorded” stand apart in the source; their conditions may differ. No end group written: not given here.

Columns and labels:
[1] = system: human female patients diagnosed with HSDD; assay: Brain activation by BOLD MRI while watching erotic pictures; format: in vivo; conditions: single sc injection 6.4 nmol/kg; scan 30 minutes after injection; versus saline session
Method: 20 human female patients diagnosed with HSDD receive either a single subcutaneous (sc) injection of kisspeptin-54 (SEQ ID NO: 17) at a dose of 6.4 nmol/kg of body weight or a sc injection of a saline (i.e. control). The sexual desire of the patients is measured by determining their brain activation using magnetic resonance imaging (MRI) with the blood-oxygenation-level-dependent (BOLD) technique to identify and quantify brain regions associated with visually evoked sexual arousal in women. All female patients are subjected to two sessions on separate days with at least 1 month in between the sessions to act as their own control. They receive in one session kisspeptin-54 and in the other one saline, the order will be randomized. Female patients are positioned into the MRI scanner 30 minutes after the sc injection and three dimensional images are taken of the brain when watching a series of erotic pictures as well as more neutral pictures to serve as control condition using an event-related design. The task is followed by an anatomical scan in which high resolution T1-weighted images are taken to determine the anatomical boundaries of the activation observed during the visual task.

[2] = system: human female patients diagnosed with HSDD; assay: Vaginal photoplethysmography (vaginal blood flow) while watching erotic or neutral images; format: in vivo; conditions: single sc injection 6.4 nmol/kg
Method: 20 human female patients diagnosed with HSDD receive either a single subcutaneous (sc) injection of kisspeptin-54 (SEQ ID NO: 17) at a dose of 6.4 nmol/kg of body weight or a sc injection of saline (i.e. control). The sexual desire of the patients is measured using vaginal photoplethysmography, which has been used to assess female genital arousal. It consists of a tampon-sized acrylic device containing a light emitting diode and a phototransistor to detect light to measure vaginal blood flow with increased sexual desire leading to increased vaginal blood flow. The sexual desire of the patients is scored starting 15 minutes after administration of sc kisspeptin or saline when watching either erotic images or neutral images. […] Any effects of kisspeptin on sexual desire disappear by 4 h after the injection.

[3] = system: female mice; assay: Mate preference test (three-compartment box, preference score); format: in vivo, mouse
Method: (§1) Unless otherwise stated, females were ovariectomized in adulthood (>8 weeks of age) under general anesthesia after either subcutaneous (sc) injections of ketamine (80 mg kg^−1 per mouse) and medetomidine (Domitor, Pfizer, 1 mg kg^−1 per mouse) or under 5% isoflurane, in order to control for endogenous hormone concentrations and to prevent pregnancies upon repeated testing. At the same time, all females received a 5 mm-long Silastic capsule (inner diameter: 1.57 mm; outer diameter: 2.41 mm) containing crystalline 17β-estradiol (diluted 1:1 with cholesterol) subcutaneously in the neck. The dose of E2 (E8875, Sigma) was based on a previous study^62 showing that this treatment leads to estradiol levels similar to mice in estrus. At the end of surgery, females under ketamine/medetomidine anesthesia received a sc injection of atipamezole (Antisedan, Pfizer, 4 mg kg^−1 per mouse) to antagonize medetomidine-induced effects and accelerate recovery. In order to induce sexual receptivity at the day of testing, all females received a subcutaneous injection with progesterone (500 μg, P0130, Sigma) 3 h before the onset of the behavioral test, unless stated otherwise (for overview of all the different hormone treatments, see Table 1).
(§2) Kisspeptin-10 (Kp-10) was synthesized in Strasbourg, France (Sequence: Tyr-Asn-Trp-Asn-Ser-Phe-Gly-Leu-Arg-Tyr-NH2, NeoMPS; weight=25.7 mg). To determine whether kisspeptin stimulated female sexual behavior in wildtype C57BL/6J mice, females received a sc injection of Kp-10 at the dose of 0.52 μg kg^−1 (injection volume 100 μl) 2h before the lordosis test. Each animal was used as its own control, i.e. the animal was injected one day with Kp-10 and the other day with saline. Females were not injected with progesterone in this particular experiment. Injections were separated by at least 3 days.
Two hours before mate preference test, female mice received a single sc injection of GnRH (0.025 mg kg^−1, Polypeptide Laboratories France SAS, SC087).
S-nitroso-N-acetyl-DL-Penicillamine (SNAP) (N398-Sigma) is a NO donor. […]
To assess mate preferences shown in response to auditory and olfactory stimuli, we used a box (60 cm long×30 cm high×13 cm wide) that was divided into three compartments using perforated opaque partitions. […] The time the subject spent poking her nose through the holes of the partition or actively sniffing the bottom of the partition in front of the female versus male stimulus animal was recorded. A preference score was calculated by dividing the time spent investigating the male compartment minus the time spent investigating the female compartment by the total time spent investigating both compartments. […]

[4] = system: female mice; assay: Lordosis test without photostimulation (lordosis quotient); format: in vivo, mouse
Method: as §1, with “1). […]” for “1).”
as §2, with “days. […]” for “days.”
Females were subjected to weekly lordosis tests in a Plexiglas aquarium (37 cm long×17 cm high×21 cm wide). A sexually experienced male was placed alone in the aquarium and allowed to adapt for 15 min. Subsequently, 3 h after receiving a subcutaneous progesterone injection (500 μg, P0130, Sigma) to induce behavioral estrus, the lordosis responses of the female to the mounts of the stimulus male were recorded. The test lasted until the female received 10 mounts or 10 min had elapsed. For the first experiment (mating-induced Fos activation) ovary intact females were paired with males during 30 minutes. […] Before each experimental condition (drug injection, cell ablation, optogenetic stimulation), all females were subjected to at least three lordosis tests (with progesterone) in order to acquire sufficient sexual experience and thus a significant LQ. Tests were performed during the dark phase of the light cycle (5 h after lights out; for details, see^67). For all details on the different hormone treatments (estradiol versus estradiol+progesterone), see Table 1.

## kisspeptin-54: human kisspeptin-54, SEQ ID NO: 17, amino acids 68 to 121 of NP_002247.3 (GTSLSPPPESSGSPQQPGLSAPHSRQIPAPQGAVLVQREKDLPNYNWNSFGLRF; listed as Homo sapiens)
[1]
  brain activation when watching the images (BOLD MRI): show increased brain activation
[2]
  time by which effects on sexual desire disappear after the injection: ≤ 4 h
[2]; scored from 15 minutes after administration
  vaginal blood flow when watching neutral images: not when watching neutral images
[2]; scored from 15 minutes after administration, versus saline
  vaginal blood flow when watching erotic images: show increased vaginal blood flow

## Tyr-Asn-Trp-Asn-Ser-Phe-Gly-Leu-Arg-Tyr-NH2 (YNWNSFGLRY-NH2) [Kp-10, Kisspeptin-10 synthesized in Strasbourg (NeoMPS), the decapeptide injected in mice]
[3]; GnRH::Cre, Dicer loxP/loxP females (OVX+E+P), sc injection, P=0.38, FIG. 9a
  male-directed preference (preference score): failed to elicit a male-directed preference
[3]; Kiss-/- (OVX+E+P) females, single sc injection 0.52 μg kg^-1, P<0.001, FIG. 1b
  male-directed preference (preference score): induced a very strong preference for the male; also recorded: triggered a male-directed preference
[3]; KissIC Cre+ females (OVX+E+P) after AAV-Casp3 ablation of RP3V kisspeptin neurons, single sc injection, P=0.041, FIG. 1e
  male-directed preference (preference score): induced a male-directed preference; also recorded: sufficient to induce a male-directed preference
[4]; Kiss-/- (OVX+E+P) females with lordosis deficits, single sc injection, FIG. 4d
  lordosis behavior: induced lordosis behavior; also recorded: could be reversed
[4]; WT C57BL/6J OVX+E females (no progesterone), sc 0.52 μg/kg 2 h before test, P<0.001, FIG. 4b
  lordosis behavior: robustly stimulated lordosis behavior
[4]; WT C57Bl6 (OVX+E+P) females, intracerebroventricular 10.4 ng/kg 1 h before test, P=0.012, FIG. 6
  lordosis behavior: stimulates lordosis behavior; also recorded: also stimulated lordosis behavior
[4]; nNOS-/- (OVX+E+P) females, sc injection, P=0.56, FIG. 11c
  lordosis behavior: failed to restore lordosis behavior
[4]; nNOS-/- (OVX+E+P) females, sc injection, P=0.56, FIG. 11c, listed as KP-10
  lordosis behavior: failed to stimulate lordosis behavior

## GnRH: GnRH from Polypeptide Laboratories France SAS, SC087 (QHWSYGLRPG; Gonadoliberin-1; UniProt P01148 24-33, looked up) [reference compound]
[3]; GnRH::Cre, Dicer loxP/loxP females (OVX+E), single sc injection 0.025 mg kg^-1, P=0.01, FIG. 9a
  male-directed preference (preference score): induced a male-directed preference; also recorded: restored this behavior
[4]; Kiss-/- (OVX+E) females, single injection, P=0.65, FIG. 9c
  lordosis behavior: failed to stimulate lordosis behavior
[4]; nNOS-/- (OVX+E) females, sc injection, P=0.19, FIG. 11c
  lordosis behavior: failed to restore lordosis behavior; also recorded: failed to stimulate lordosis behavior
